Article PMC10653770 (Journal of Enzyme Inhibition and Medicinal Chemistry, 2023)

Tests used:
[1] = molecular target: AChE − induced Aβ1 − 42 aggregation (Homo sapiens, UniProt P22303); type: biochemical; conditions: co-incubation with Aβ1-42 and AChE for 24h; 0.1 μM and 1 μM compound
SH − SY5Y cells [2] = conditions: for toxicity towards SHSY5Y cells: within the tested concentration range
SH − SY5Y cells [3] = type: cell-based, human; conditions: 1 μM compound; Aβ1 − 42 20 μM, 48 h
in vitro = conditions: human
hAChE = hAChE (Homo sapiens, UniProt P22303); experiment: Kinetic profiling of AChE inhibition; type: biochemical; conditions: Lineweaver–Burk plot
Sequence of hAChE (P22303 32-614): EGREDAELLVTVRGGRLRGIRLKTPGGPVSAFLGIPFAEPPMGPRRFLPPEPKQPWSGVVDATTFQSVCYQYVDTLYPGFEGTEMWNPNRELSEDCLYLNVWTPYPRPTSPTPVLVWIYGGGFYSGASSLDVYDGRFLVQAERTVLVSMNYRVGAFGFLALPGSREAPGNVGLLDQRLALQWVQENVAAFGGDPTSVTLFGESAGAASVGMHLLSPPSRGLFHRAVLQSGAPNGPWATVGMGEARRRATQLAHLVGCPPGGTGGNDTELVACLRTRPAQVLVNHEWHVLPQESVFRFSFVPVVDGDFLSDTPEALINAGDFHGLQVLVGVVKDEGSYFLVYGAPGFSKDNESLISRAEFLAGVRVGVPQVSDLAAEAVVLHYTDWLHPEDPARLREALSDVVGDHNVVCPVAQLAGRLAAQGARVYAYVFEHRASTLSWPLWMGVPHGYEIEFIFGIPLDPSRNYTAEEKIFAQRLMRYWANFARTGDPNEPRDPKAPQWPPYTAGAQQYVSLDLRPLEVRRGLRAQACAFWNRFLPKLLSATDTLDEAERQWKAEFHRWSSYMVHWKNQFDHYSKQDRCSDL

Sequence of AChE − induced Aβ1 − 42 aggregation (P22303 32-614): as above

Structure (SMILES)	AChE − induced Aβ1 − 42 aggregation [1]	cytotoxicity in SHSY5Y cells (SH − SY5Y cells [2]; 0.1 to 1 μM, 48h incubation)	toxicity towards SHSY5Y cells (SH − SY5Y cells [2])	cellular recovery against Aβ1 − 42−induced damage (SH − SY5Y cells [3])	viability at 10 µM (in vitro) [%]	type of AChE inhibition (hAChE)
C=CCn1c2cc(OC(=O)CCCCN3CCN(Cc4ccccc4)CC3)ccc2c2ccnc(C)c21 [Compound 13, 9-allyl-1-methyl-9H-pyrido[3,4-b]indol-7-yl 5–(4-benzylpiperazin-1-yl)pentanoate]	significant reduction in Aβ1 − 42 aggregation	negligible cytotoxicity	weak toxicity	exceptional cellular recovery	> 79	mixed − type inhibition
C=CCn1c2cc(OC(=O)CCCCN3CCN(Cc4ccc(F)cc4)CC3)ccc2c2ccnc(C)c21 [Compound 17d, 9-allyl-1-methyl-9H-pyrido[3,4-b]indol-7-yl 5–(4-(4-fluorobenzyl)piperazin-1-yl)pentanoate]	significant reduction in Aβ1 − 42 aggregation	–	weak toxicity	–	> 79	–
